Several values for one entry are separate records, joined by “and”; a condition that tells them apart may be missing. Identical values can stand only once.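 Tested at 5 concentrations; 48 h exposure; 96-well plates; endpoints linearly interpolated, else capped at highest concentration. GI50 is the concentration that inhibits growth by half.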 Activity calls are given as the source filed them. Cut-off read from the data, not from the text of the source: active = GI50 up to about 1.1 µM and inactive = higher.
Columns and labels:
Test in all cases: NCI-60 cell line screen, 48 h
A498 = test system: A498
CAKI-1 = test system: CAKI-1
COLO 205 = test system: COLO 205
EKVX = test system: EKVX
HCC 2998 = test system: HCC 2998
HCT-15 = test system: HCT-15
HOP-62 = test system: HOP-62
HOP-92 = test system: HOP-92
K562 = test system: K562
NCI-H460 = test system: NCI-H460
OVCAR-4 = test system: OVCAR-4
SF-539 = test system: SF-539
SK-MEL-2 = test system: SK-MEL-2
SNB-78 = test system: SNB-78
U-251 = test system: U-251
Malme-3M = test system: Malme-3M
SNB-75 = test system: SNB-75
BT-549 = test system: BT-549
MDA-MB-435 = test system: MDA-MB-435
MDA-N = test system: MDA-N

Row | SMILES | GI50 (A498) | GI50 (CAKI-1) | GI50 (COLO 205) | GI50 (EKVX) | GI50 (HCC 2998) | GI50 (HCT-15) [µM] | GI50 (HOP-62) | GI50 (HOP-92) | GI50 (K562) | GI50 (NCI-H460) | GI50 (OVCAR-4) | GI50 (SF-539) | GI50 (SK-MEL-2) | GI50 (SNB-78) | GI50 (U-251) | GI50 (Malme-3M) | GI50 (SNB-75) | GI50 (BT-549) | GI50 (MDA-MB-435) | GI50 (MDA-N)
1 | Oc1ncnc2c1nnn2CCCn1nnc2c(O)ncnc21 | > 100 µM (inactive) | > 100 µM (inactive) | > 100 µM (inactive) | > 100 µM (inactive) | > 100 µM (inactive) | > 100 | > 100 µM (inactive) | > 100 µM (inactive) | > 100 µM (inactive) | > 100 µM (inactive) | > 100 µM (inactive) | > 100 µM (inactive) | > 100 µM (inactive) | > 100 µM (inactive) | > 100 µM (inactive) |  |  |  |  | 
2 | CCCCSC(=CC(=O)c1cccc(C(=O)C=C(SCCCC)SCCCC)n1)SCCCC | > 100 µM (inactive) | > 100 µM (inactive) | > 100 µM (inactive) | > 100 µM (inactive) | > 100 µM (inactive) | > 100 | > 100 µM (inactive) | > 100 µM (inactive) | > 100 µM (inactive) | > 100 µM (inactive) | > 100 µM (inactive) | > 100 µM (inactive) | > 100 µM (inactive) | > 100 µM (inactive) | > 100 µM (inactive) | > 100 µM (inactive) | 88.9 µM (inactive) |  |  | 
3 | CN(/N=C\c1ccnc2ccccc12)c1ccc([N+](=O)[O-])cc1 | > 100 µM (inactive) | > 100 µM (inactive) | > 100 µM (inactive) | > 100 µM (inactive) | > 100 µM (inactive) | > 100 | > 100 µM (inactive) | > 100 µM (inactive) | 25.3 µM (inactive) | 5.73 µM (inactive) |  | 27 µM (inactive) | > 100 µM (inactive) | > 100 µM (inactive) | 8.77 µM (inactive) | > 100 µM (inactive) | > 100 µM (inactive) |  |  | 
4 | O=C(CC1(O)C(=O)Nc2ccccc21)c1ccc(O)cc1 (stereo unspecified) | > 100 µM (inactive) | > 100 µM (inactive) | > 100 µM (inactive) | > 100 µM (inactive) | > 100 µM (inactive) | > 100 | > 100 µM (inactive) | > 100 µM (inactive) | > 100 µM (inactive) | > 100 µM (inactive) | > 100 µM (inactive) | > 100 µM (inactive) | > 100 µM (inactive) | > 100 µM (inactive) | > 100 µM (inactive) | > 100 µM (inactive) | 69 µM (inactive) |  |  | 
5 | Cc1cc(-c2ccccc2)nc(Nc2cc3ccccc3[nH]2)n1 | > 100 µM (inactive) | > 100 µM (inactive) | > 100 µM (inactive) | 89.3 µM (inactive) | > 100 µM (inactive) | > 100 | > 100 µM (inactive) | 22.2 µM (inactive) | > 100 µM (inactive) | > 100 µM (inactive) | > 100 µM (inactive) | > 100 µM (inactive) | > 100 µM (inactive) | > 100 µM (inactive) | > 100 µM (inactive) | > 100 µM (inactive) |  |  |  | 
6 | Cc1cccc(/C=N/N=C(\N)NO)n1 | > 100 µM (inactive) | 20.8 µM (inactive) | > 100 µM (inactive) | 37.3 µM (inactive) | 83.8 µM (inactive) | > 10 | 17.1 µM (inactive) | 26.1 µM (inactive) | 33.5 µM (inactive) | 26.9 µM (inactive) | 28.2 µM (inactive) | 26.7 µM (inactive) | 50 µM (inactive) | > 100 µM (inactive) | 78.7 µM (inactive) | > 100 µM (inactive) | 20.5 µM (inactive) |  |  | 
7 | O=C(O/N=C1/CCC/C1=C\c1ccccc1)c1ccc(Cl)cc1 | > 60.4 µM (inactive) | > 52.1 µM (inactive) | > 100 µM (inactive) | > 67.3 µM (inactive) | > 100 µM (inactive) | > 100 | > 54.3 µM (inactive) | 64.3 µM (inactive) | > 94.2 µM (inactive) | > 31.6 µM (inactive) | 25.8 µM (inactive) | 25.2 µM (inactive) | > 100 µM (inactive) | 32.8 µM (inactive) | 46.6 µM (inactive) | > 100 µM (inactive) | 21.7 µM (inactive) |  |  | 
8 | COc1cc2c3cc1Oc1c(OC)c(OC)cc4c1C(Cc1ccc(cc1)Oc1cc(ccc1O)CC3N(C)CC2)N(C)CC4 (stereo unspecified) | 16.1 µM (inactive) | 14.3 µM (inactive) and 16.9 µM (inactive) |  | 24.9 µM (inactive) and 13.1 µM (inactive) |  |  | 18.1 µM (inactive) | 16.2 µM (inactive) | 1.49 µM (inactive) and 1.71 µM (inactive) |  | 12.4 µM (inactive) and 14.1 µM (inactive) |  | 12.9 µM (inactive) and 8.69 µM (inactive) | 20.9 µM (inactive) | 11.2 µM (inactive) and 9.08 µM (inactive) | 7.01 µM (inactive) and 14 µM (inactive) | 11.1 µM (inactive) and 11.8 µM (inactive) | 10.1 µM (inactive) | 8.09 µM (inactive) | 4.73 µM (inactive)
9 | COc1cccc2c1C1(O)C2CCCC12OCCCO2 (stereo unspecified) | > 100 µM (inactive) | > 100 µM (inactive) | > 100 µM (inactive) |  | > 100 µM (inactive) | > 100 | > 100 µM (inactive) |  | > 100 µM (inactive) | > 100 µM (inactive) | > 100 µM (inactive) | > 100 µM (inactive) | > 100 µM (inactive) | > 100 µM (inactive) | > 100 µM (inactive) | > 100 µM (inactive) | > 100 µM (inactive) |  |  | 
10 | Cc1c2cnccc2c(C)c2c1c1ccccc1n2CCCCCCCl | > 50 µM (inactive) | > 50 µM (inactive) | 28.2 µM (inactive) | > 50 µM (inactive) | > 46.8 µM (inactive) | > 50 | > 50 µM (inactive) | > 50 µM (inactive) | 18.1 µM (inactive) | 29.4 µM (inactive) | > 10.5 µM (inactive) | > 50 µM (inactive) | > 50 µM (inactive) | 32.9 µM (inactive) | 35.1 µM (inactive) | > 50 µM (inactive) | > 31.6 µM (inactive) |  |  | 
11 | COC(=O)c1c(C(=O)OC)c(-c2ccccc2)n(-c2ccccc2)c(=O)c1-c1ccccc1 | > 100 µM (inactive) | 51.2 µM (inactive) | > 100 µM (inactive) | > 100 µM (inactive) | > 100 µM (inactive) | > 100 | 27.6 µM (inactive) | 24.3 µM (inactive) | > 100 µM (inactive) | 98.6 µM (inactive) | 25.2 µM (inactive) | 17.7 µM (inactive) |  | 54.7 µM (inactive) | 42.9 µM (inactive) | 61.2 µM (inactive) | 27.2 µM (inactive) |  |  | 
12 | O=[N+]([O-])C=C1c2ccccc2-c2ccccc21 | 19.6 µM (inactive) | 11.4 µM (inactive) | 1.86 µM (inactive) | 20.4 µM (inactive) | 16.8 µM (inactive) | 19.1 | 17.5 µM (inactive) |  | 2.52 µM (inactive) | 20.1 µM (inactive) | 14.2 µM (inactive) | 17.5 µM (inactive) | 21.6 µM (inactive) | 17.4 µM (inactive) | > 10 µM (inactive) |  | 25.4 µM (inactive) |  |  | 
13 | COc1ccc(C(O)C(c2ccc(OCc3ccccc3)cc2)c2ccc(OCc3ccccc3)cc2)cc1 (stereo unspecified) |  | > 100 µM (inactive) | > 100 µM (inactive) | > 100 µM (inactive) | > 100 µM (inactive) | > 100 | > 100 µM (inactive) | > 100 µM (inactive) | > 100 µM (inactive) | > 100 µM (inactive) | > 100 µM (inactive) | > 100 µM (inactive) | > 100 µM (inactive) | > 100 µM (inactive) | > 100 µM (inactive) | > 100 µM (inactive) | > 100 µM (inactive) |  |  | 
14 | O=c1nc(-c2ccccc2)c2c3c(cccn13)CCC2 | 92 µM (inactive) | > 100 µM (inactive) |  |  | > 100 µM (inactive) | > 100 | > 100 µM (inactive) | > 100 µM (inactive) | > 100 µM (inactive) | > 100 µM (inactive) | > 100 µM (inactive) | > 100 µM (inactive) | > 100 µM (inactive) | > 100 µM (inactive) | > 100 µM (inactive) | > 100 µM (inactive) | 21.8 µM (inactive) |  |  | 
15 | COc1cc(C(C)O)c[n+](Cc2ccccc2)c1 (stereo unspecified) | > 100 µM (inactive) | > 100 µM (inactive) | > 100 µM (inactive) | > 100 µM (inactive) | > 100 µM (inactive) | > 100 | > 100 µM (inactive) | > 100 µM (inactive) | > 100 µM (inactive) | > 100 µM (inactive) | > 100 µM (inactive) | > 100 µM (inactive) | > 100 µM (inactive) | > 100 µM (inactive) | > 100 µM (inactive) | > 100 µM (inactive) | > 100 µM (inactive) |  |  | 
16 | CN1CC2(CCCCC2)C(O)C12C=CCCC2 (stereo unspecified) | > 100 µM (inactive) | > 100 µM (inactive) | > 100 µM (inactive) | > 100 µM (inactive) | > 100 µM (inactive) | > 100 | > 100 µM (inactive) |  | > 100 µM (inactive) |  |  | > 100 µM (inactive) | > 100 µM (inactive) | > 100 µM (inactive) | > 100 µM (inactive) | > 100 µM (inactive) | 69.5 µM (inactive) |  |  | 
17 | Cc1nc(-n2nc(-c3ccccc3)cc2-c2ccccc2)sc1C(/C=C/c1ccc([N+](=O)[O-])cc1)=N/NC(N)=S | > 100 µM (inactive) | 60.3 µM (inactive) | 33.2 µM (inactive) | > 100 µM (inactive) | 23.1 µM (inactive) | 28.4 | 14 µM (inactive) | 25.1 µM (inactive) | 21.6 µM (inactive) | 60.3 µM (inactive) |  | 28 µM (inactive) | 33.9 µM (inactive) | 18.7 µM (inactive) | 47.2 µM (inactive) | > 100 µM (inactive) | 20.8 µM (inactive) |  |  | 
